The test system of one experiment is S. pneumoniae TIGR4. The experiment is described as follows: Bacterial killing assay (CFU/mL reduction after 6 h). Type of experiment: cell-based, Streptococcus pneumoniae. Particulars: for Δlog CFU reduction in S. pneumoniae strains: TIGR4: log CFU reduction CPP-antisense PNA – log CFU reduction CPP-scPNA; for Reduction of bacterial CFU/mL compared to untreated control (in words): concentration range 2.5 to 20 μM, n = 5. As for the experimental part:
The impact of different CPPs on the efficacy of antisense PNAs targeting gyrA and rpoB in S. pneumoniae was tested using an in vitro killing assay ([25]). S. pneumoniae strains were incubated for 6 h with CPP-antisense PNA conjugates. We determined the reduction of bacterial CFU/mL caused by different CPP-coupled antisense PNA constructs compared to an untreated control. Three different CPPs were tested: HIV-1 TAT (TAT), oligolysin (K8), and (RXR)4XB (Table 1). Concentration-dependent bactericidal activity was investigated by treatment of S. pneumoniae TIGR4 in a CPP-antisense PNA conjugate concentration range of 2.5 to 20 μM (Fig. 1).
(§1) After culturing S. pneumoniae strains in BHI, D39 and 19F were diluted to approximately 10^5 CFU/mL in phosphate-buffered saline (PBS):BHI (93%:7%), while TIGR4 was diluted to approximately 10^5 CFU/mL in PBS:BHI (96%:4%). Next, 450-μL volumes of the respective bacterial suspensions, containing approximately 0.5× 10^5 CFU, were transferred to 2-mL reaction tubes. A 50-μL volume of PNA solution was added to a final PNA concentration of 1 to 20 μM or as indicated. Fifty μL H2O served as a mock control. The reaction tubes were incubated for 6 h at 37°C and 7 rpm (Rotor SB3; Stuart, Staffordshire, United Kingdom). The concentration of CPP-PNA that reduced CFU/mL by 50% after 6 h of incubation compared to an untreated control (IC50) was calculated by nonlinear regression analysis using GraphPad Prism software (GraphPad Software, San Diego, CA).

For another experiment, the system named is S. pneumoniae strain 19F. Described as above. Particulars: log CFU reduction CPP-antisense PNA – log CFU reduction CPP-scPNA. Format: cell-based, Streptococcus pneumoniae. As for the experimental part:
Compared to S. pneumoniae strains TIGR4 and D39, strain 19F was clearly affected by incubation with CPP-coupled scPNAs (Fig. S2). Specific antimicrobial activity of TAT-antisense PNAs was low, regardless of the target gene (Fig. S2, Table 2).
as §1

Another experiment has as its system S. pneumoniae strain D39. The experiment is described as above. Type of experiment: cell-based, Streptococcus pneumoniae. The note with it: log CFU reduction CPP-antisense PNA – log CFU reduction CPP-scPNA. On the procedure: Similar results were obtained with S. pneumoniae strain D39 (Fig. S1). (RXR)4XB-coupled antisense PNAs were more efficient than TAT-coupled antisense PNAs. […] The difference between the target genes anti-gyrA and anti-rpoB was less pronounced in D39 than in TIGR4 (Table 2).
as §1

The subject of experiment [1] is G. mellonella larvae infected with S. pneumoniae TIGR4. The experiment is described as follows: G. mellonella infection model, larval survival. Type of experiment: in vivo, Galleria mellonella. Particulars: 10 nmol CPP-PNA/larva; for Effect on survival of infected larvae (in words): data not shown. On the procedure:
Antimicrobial efficiency of CPP-antisense PNA conjugates was evaluated in vivo employing a G. mellonella infection and treatment model ([22], [28]). Larvae were infected with S. pneumoniae strain TIGR4 and subsequently treated with 10 nmol CPP-anti-gyrA PNAs. Treatment with levofloxacin served as a positive control. Larval survival was observed over 7 days.
Larvae of the greater wax moth (G. mellonella) were obtained from Bugs-International GmbH (Irsingen/Unterfeld, Germany). For infection experiments, S. pneumoniae TIGR4 was grown for 7 h in BHI, washed twice in a 0.9% NaCl solution, and suspended in 0.9% NaCl to a final concentration of approximately 1 × 10^8 CFU/mL. Larvae weighing 150 to 200 mg were infected with 1 × 10^6 to 3 × 10^6 CFU/larva. Bacteria were injected into the hemocoel of the larvae between the last two pairs of prolegs using a microapplicator (World Precision Instruments, LLC, Sarasota, FL) and a fine-dosage syringe (Omnican-F, 0.01 to 1 mL, 0.30 × 12 mm; B. Braun AG, Melsungen, Germany). As mock control, 0.9% NaCl (PNA experiment) or 0.9% NaCl/3% DMSO (levofloxacin experiment) was injected. For CPP-PNA treatment, larvae were injected 30 min postinfection with 10 nmol CPP-PNA/larva. For levofloxacin treatment, larvae were injected 30 min postinfection with 1 or 10 μg levofloxacin/larva. Larvae were incubated for 7 days, and survival was monitored daily ([22]).

Some results are limits rather than exact numbers.

Turning to “GRKKRRQRRRYK-eg-ctgccaagatga [TAT-anti-rpoB PNA, HIV-1 TAT (48–57) peptide coupled to antisense PNA against S. pneumoniae rpoB]”, the “Δlog CFU reduction in S. pneumoniae strains: TIGR4” value (from here on “Δlog CFU reduction … TIGR4”) in the experiment with S. pneumoniae TIGR4 (CPNA 2.5 μM, 6 h) was 0; in the experiment on S. pneumoniae TIGR4 (CPNA 5 μM, 6 h), 0; in the experiment on S. pneumoniae TIGR4 (CPNA 10 μM, 6 h), 0; in the experiment on S. pneumoniae TIGR4 (CPNA 20 μM, 6 h), 0. Also, the “Reduction of bacterial CFU/mL compared to untreated control (in words)” value (shortened to “Reduction of bacterial CFU/mL”) in the experiment on S. pneumoniae TIGR4 (TIGR4, 6 h) was “No reduction of bacterial counts”. The “Δlog CFU reduction in S. pneumoniae strains: 19F” value (“Δlog CFU reduction … 19F” for short) in the experiment with S. pneumoniae strain 19F (CPNA 2.5 μM) is listed as 0.05; in the experiment with S. pneumoniae strain 19F (CPNA 5 μM), 0.05; with S. pneumoniae strain 19F (CPNA 10 μM) it was 0; with S. pneumoniae strain 19F (CPNA 20 μM) it was 0. The “Δlog CFU reduction in S. pneumoniae strains: D39” value (“Δlog CFU reduction … D39” for short) in the experiment with S. pneumoniae strain D39 (CPNA 2.5 μM) is reported as 0; in the experiment on S. pneumoniae strain D39 (CPNA 5 μM), 0.11; with S. pneumoniae strain D39 (CPNA 10 μM), 0.16; with S. pneumoniae strain D39 (CPNA 20 μM) it was 0.51. Moreover, the “Effect on survival of infected larvae (in words)” value in experiment [1] is on record as “did not increase survival”.
For “RXRRXRRXRRXRXB-eg-ctgccaagatga [(RXR)4XB-anti-rpoB PNA, (RXR)4XB peptide coupled to antisense PNA against rpoB]”, the “Δlog CFU reduction … TIGR4” value is 0 with S. pneumoniae TIGR4 (CPNA 2.5 μM, 6 h); 0.40 in the experiment on S. pneumoniae TIGR4 (CPNA 5 μM, 6 h); 0.66 with S. pneumoniae TIGR4 (CPNA 10 μM, 6 h); at least 1 in the experiment on S. pneumoniae TIGR4 (CPNA 20 μM, 6 h); 1.58 in the experiment with S. pneumoniae TIGR4 (CPNA 20 μM, 6 h, listed as (RXR)4XB-anti-rpoB). The “Reduction of bacterial CFU/mL” value with S. pneumoniae TIGR4 (TIGR4, 6 h) is “significant decreases”. For the same substance, the “Δlog CFU reduction … 19F” value in the experiment with S. pneumoniae strain 19F (CPNA 2.5 μM) is given as 0.18; in the experiment with S. pneumoniae strain 19F (CPNA 5 μM), 0.17; in the experiment on S. pneumoniae strain 19F (CPNA 10 μM), 0.16; with S. pneumoniae strain 19F (CPNA 20 μM), 0.56. Moreover, the “Δlog CFU reduction … D39” value came to 0 with S. pneumoniae strain D39 (CPNA 2.5 μM), 0.16 in the experiment on S. pneumoniae strain D39 (CPNA 5 μM), 0.61 in the experiment on S. pneumoniae strain D39 (CPNA 10 μM) and 1.98 with S. pneumoniae strain D39 (CPNA 20 μM). The “Effect on survival of infected larvae (in words)” value in experiment [1] is listed as “did not increase survival”.
Turning to “RXRRXRRXRRXRXB-eg-tgcattaata [(RXR)4XB-anti-gyrA PNA, (RXR)4XB peptide coupled to antisense PNA against gyrA]”, the “Δlog CFU reduction … TIGR4” value is on record as 0 with S. pneumoniae TIGR4 (CPNA 2.5 μM, 6 h); 0.98 in the experiment on S. pneumoniae TIGR4 (CPNA 5 μM, 6 h); at least 1 in the experiment on S. pneumoniae TIGR4 (CPNA 10 μM, 6 h); 1.80 in the experiment on S. pneumoniae TIGR4 (CPNA 10 μM, 6 h, listed as (RXR)4XB-anti-gyrA); 3.18 in the experiment with S. pneumoniae TIGR4 (CPNA 20 μM, 6 h). Further, the “log CFU reduction” value with S. pneumoniae TIGR4 (TIGR4, 6 h, 20 μM CPP-PNA) stood at 4. Further, the “Reduction of bacterial CFU/mL” value in the experiment on S. pneumoniae TIGR4 (TIGR4, 6 h) was “significant decreases”. In addition, the IC50 with S. pneumoniae TIGR4 (TIGR4, 6 h incubation vs untreated control, nonlinear regression, read-out: 50% inhibitory concentration (IC50): concentration that reduced CFU/mL by 50%) was 630 nM. Also, the “Δlog CFU reduction … 19F” value in the experiment on S. pneumoniae strain 19F (CPNA 2.5 μM) is listed as 0.72; with S. pneumoniae strain 19F (CPNA 5 μM), 1.20; in the experiment with S. pneumoniae strain 19F (CPNA 10 μM), at least 1; with S. pneumoniae strain 19F (CPNA 10 μM, listed as (RXR)4XB-anti-gyrA) it was 1.21; in the experiment on S. pneumoniae strain 19F (CPNA 20 μM) it was 1.48. The “Δlog CFU reduction … D39” value is recorded as 0 in the experiment with S. pneumoniae strain D39 (CPNA 2.5 μM), 0 in the experiment on S. pneumoniae strain D39 (CPNA 5 μM), 0.42 in the experiment on S. pneumoniae strain D39 (CPNA 10 μM) and 2.23 with S. pneumoniae strain D39 (CPNA 20 μM). In addition, in experiment [1] (30 min postinfection, 7 days, n = 60), the “Increase of survival rate” value came out at 22%.

The values are drawn from PMC9784828, “Antimicrobial Activity of Peptide-Coupled Antisense Peptide Nucleic Acids in Streptococcus pneumoniae” (Microbiology Spectrum, 2022).
